For one compound, inhibition results are on record in US11058734B2, “Probiotic strains having cholesterol absorbing capacity, methods and uses thereof” (BIOSEARCH, S.A., priority 2014, dated 2021).

Molecules are shown by their SMILES.

Usually inhibition stands for the percentage by which the read-out fell short of the control. The low end stands for little suppression, the high end for strong suppression.

The subject of this assay is HT-29 enterocytes. Briefly: Fluoresterol absorption by HT-29 enterocytes (flow cytometry). It is filed as cell-based. To be noted: Homo sapiens, Ezetimibe at maximum effective concentration 300 μM. The method, then: HT-29 enterocytes were obtained from the CIC of the University of Granada (Spain) and cultured in DMEM medium supplemented with a 10% (v/v) of FBS, non-essential amino acids and 2 mM L-glutamine; at 37° C. and 5% (v/v) CO2. Cultures for fluoresterol absorption were grown for 14 days using 96-well plates, incubated for 3-4 h with micelles of fluoresterol and bacterial suspensions at 5·10^8 bacteria/mL, or […] Ezetimibe (MSD-SP Ltd) as positive control. Before fluorocytometric assays, HT-29 cultures were disagreggated by trypsin treatment, the medium and free micelles of fluoresterol removed by centrifugation and enterocytes suspended in PBS buffer.
Micelles of fluoresterol, containing 10 mM sodium taurocholate, 6 mM phosphatidylcholine and 0.2 mM fluoresterol were prepared as described by Sparrow et al. (Sparrow et al., 1999, J Lipid Res 40:1747-57). Fluoresterol absorption by bacteria was analyzed incubating bacterial suspensions (5·10^8 bacteria/mL) with micelles (0.1 mg/mL fluoresterol) in PBS buffer at 37° C. […] Finally, bacteria associated fluorescence was determined in a Tecan Genius microplate reader (485 nm excitation, 535 nm emission filters) or in a Beckton Dickinson FACScalibur flow cytometer. […] Absorbed fluoresterol was quantified based on the data of fluorescence (λex: 488 nm; λem: 530 nm) per cell obtained from 2,000 events in each sample. […]

Regarding `O=C1[C@H](CC[C@H](O)c2ccc(F)cc2)[C@@H](c2ccc(O)cc2)N1c1ccc(F)cc1` [Ezetimibe], at 300 µM the inhibition was 40%.
